Assay results from patent publication US5223526A, “Pyrazole carboxanilide fungicides and use” (Monsanto Company, priority 1992, dated 1993).

Legend:
Rhizoctonia solani = assay: Rice sheath blight; type: in vivo; parameters: scale not given here; conditions: inoculated two days later, rated after 7 days, average of five plants; for Disease Control Rating at 0.02 mg/mL: foliage and soil sprayed with 0.02 mg/mL; for Disease Control Rating at 0.1 mg/mL: foliage and soil sprayed with 0.1 mg/mL; for Disease Control Rating at 0.5 mg/mL: foliage and soil sprayed with 0.5 mg/mL
Procedure: Rice plants, 11 to 15 days old, are grown in 7.65 cm^2 pots. Each plant in the treatment groups is treated by spraying both the foliage and the soil surface, each with 2 mL of a water/acetone/Tween®20 formulation containing 0.5, 0.1, or 0.02 mg/mL of Compound A. The pots are placed in flood trays which are filled with water to just below the soil line. Two days later, approximately two grams of Rhizoctonia solani inoculum, cultured on rice grain for four to eight weeks, is applied to the base of the rice plants in each pot. After 7 days in a 25° C. high humidity growth chamber, each plant is evaluated for the level of disease contro as compared to untreated controls by the following scale and the average of five plants per treatment level is calculated.

succinate dehydrogenase = molecular target: T1, succinate dehydrogenase (Botrytis cinerea, UniProt A0A384J5E4+A0A384J8V8+A0A384JHJ5); assay: Enzyme inhibition: succinate dehydrogenase activity in Botrytis cinerea mitochondria (DCPIP reduction); type: biochemical; conditions: concentration required to inhibit the rate of DCPIP reduction by 50%; Botrytis cinerea isolate Nick mitochondria; read-out: I50 (μM conc.)
T1 construct: succinate-DCPIP reductase assay with KCN
Procedure: Mitochondria were isolated by a method adapted from G.A. White [Biochem. Biophys. Res. Commun. 44: 1212, 1971]. Twenty to thirty grams of Botrytis cinerea isolate Nick were resuspended in 250 mL 0.25M sucrose, 5mM Na4 EDTA, pH 7.0 (+) 0.15% (w/v) bovine serum albumin (BSA) and placed in a Bead Beater chamber (Biospec Products, Bartlesville, Ok.). Zirconium oxide beads (0.5mm) were added to finish filling the chamber. Four 30 second beats separated by 2 minute temperature equilibration periods in the cold were used to break the mycelia. A crude mitochondrial preparation was harvested from the homogenate by differential centrifugation at 4° C. and resuspended in BSA-free sucrose/EDTA media and used for SDH assays.
The succinate dehydrogenase activity was measured at 600 nm in 50 mM potassium phosphate, pH 7.2, 1 mM KCN, 45 μM 2,6-dichlorophenolindophenol (DCPIP) and 17 mM disodium succinate (final volume, 1 mL) with a Perkin-Elmer Lambda 7 ultraviolet-visible spectrophotometer. The test compounds were added as acetone solutions (final concentration of acetone, 1% (v/v)). The mitochondrial preparatons were used to initiate the reaction. All rates were corrected for endogenous activities minus succinate. Semilog plots of percentage inhibition versus test compound concentration were used to determine inhibition expressed as I50 (μM) which is the concentration required to inhibit the rate of DCPIP reduction by 50%. The commercial fungicide carboxin was used as standard throughout.

Botrytis cinerea [1] = assay: Eggplant grey mold; type: in vivo; parameters: scale not given here; conditions: inoculated 24 h later, rated after 3-4 days; for Disease Control Rating at 500 ppm: eggplant sprayed with 500 ppm; for Disease Control Rating at 20 ppm: eggplant sprayed with 20 ppm; for Disease Control Rating at 100 ppm: eggplant sprayed with 100 ppm
Procedure: Eggplant seed are planted in 2.25" square pots, six per pot, and maintained in growth chambers set at 23° C., 80% humidity, and 12 h photoperiod. When the plants are at the cotyledon stage (14-18 days afterplanting), the plants are sprayed with 1.5 mL/pot of 500, 100 or 20 ppm 2:3 acetone:water (with 0.5% Tween® 20) formulations of the test compounds.
Twenty-four hours later the plants are inoculated with Botrytis cinerea, approximately 0.5 mL/pot of a 4×10^6 spore/mL suspension. The plantes are incubated at 23° C. and 100% humidity for 3-4 days, at which time disease control ratings are made based on presence and severity of Botrytis lesions.

Botrytis cinerea [2] = assay: Vine grey mold (grape berries); type: in vivo; conditions: average of six berries, 7-10 days; for pest or weed control at 50 ppm: grape berries treated with 50 ppm, read-out: % DISEASE CONTROL 50 ppm; for pest or weed control at 200 ppm: grape berries treated with 200 ppm, read-out: % DISEASE CONTROL 200 ppm
Procedure: Grape berries, which have been washed and surfaced sterilized in 70% ethanol for one minute, are, except for the negative controls, treated with 0.2 mL of a 2:3 acetone/water formulation (containing 0.05% Tween® 20) of 200 or 50 ppm of the test compounds and placed one per well in 12-well plates. Six berries per treatment level are used. Twenty-four hours later each berry is inoculated with Botrytis cinerea conidia, 0.2 mL of 10^6 spores/mL suspension. The plates are incubated at 20° C. with a 12 hours photoperiod for 7-10 days and the percent surface area infected with the disease is determined for each replicate using the values of 0, 1, 2, 5, 7, 10, 15, 20, 25, 30, 35, 40, 45, 50, 55, 60, 65, 70, 75, 80, 85, 90, 95, and 100%. Treatment means are calculated and percent disease control is determined by the formula [(control mean - treatment mean)/control means]×100.
Some of the compounds have been tested more than once and the results shown are the average of the number of tests reported.

T1 sequence (A0A384J5E4 1-300): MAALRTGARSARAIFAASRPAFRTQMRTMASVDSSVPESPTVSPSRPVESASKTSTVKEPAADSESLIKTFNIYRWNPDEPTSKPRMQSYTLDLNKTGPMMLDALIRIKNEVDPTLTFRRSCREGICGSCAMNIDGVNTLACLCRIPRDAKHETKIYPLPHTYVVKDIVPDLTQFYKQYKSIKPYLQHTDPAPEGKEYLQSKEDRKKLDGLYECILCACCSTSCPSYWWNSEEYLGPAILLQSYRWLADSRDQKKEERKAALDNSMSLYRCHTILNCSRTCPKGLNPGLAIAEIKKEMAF
T1 sequence (A0A384J8V8 1-189): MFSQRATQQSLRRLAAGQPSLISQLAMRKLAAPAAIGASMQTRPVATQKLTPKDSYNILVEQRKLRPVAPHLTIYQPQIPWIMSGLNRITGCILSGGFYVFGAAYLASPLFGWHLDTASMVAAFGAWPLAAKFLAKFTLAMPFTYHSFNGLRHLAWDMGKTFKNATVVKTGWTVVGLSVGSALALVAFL
T1 sequence (A0A384JHJ5 1-192): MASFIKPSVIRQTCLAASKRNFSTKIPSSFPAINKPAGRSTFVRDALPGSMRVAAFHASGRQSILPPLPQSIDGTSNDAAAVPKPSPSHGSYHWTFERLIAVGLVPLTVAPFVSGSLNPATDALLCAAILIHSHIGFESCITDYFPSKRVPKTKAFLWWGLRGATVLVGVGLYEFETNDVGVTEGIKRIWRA
T1 sequence (A0A384K456 1-647 partner): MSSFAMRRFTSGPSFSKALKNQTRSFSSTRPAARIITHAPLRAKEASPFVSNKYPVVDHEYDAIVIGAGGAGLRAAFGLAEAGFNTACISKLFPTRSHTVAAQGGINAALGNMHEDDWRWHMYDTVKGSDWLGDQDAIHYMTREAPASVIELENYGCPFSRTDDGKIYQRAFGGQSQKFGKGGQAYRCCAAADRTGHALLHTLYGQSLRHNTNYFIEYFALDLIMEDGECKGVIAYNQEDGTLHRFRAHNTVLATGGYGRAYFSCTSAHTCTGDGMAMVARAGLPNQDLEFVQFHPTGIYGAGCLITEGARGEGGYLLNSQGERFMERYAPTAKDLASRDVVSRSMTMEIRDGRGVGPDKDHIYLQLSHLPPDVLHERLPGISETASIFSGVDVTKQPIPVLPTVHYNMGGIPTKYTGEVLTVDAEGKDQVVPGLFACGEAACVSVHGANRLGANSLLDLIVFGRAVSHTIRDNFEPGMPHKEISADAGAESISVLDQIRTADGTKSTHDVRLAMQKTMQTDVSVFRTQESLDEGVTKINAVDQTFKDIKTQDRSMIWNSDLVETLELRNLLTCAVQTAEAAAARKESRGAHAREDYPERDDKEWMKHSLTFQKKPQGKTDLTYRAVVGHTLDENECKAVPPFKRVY

Row | Compound | Disease Control Rating at 0.02 mg/mL (Rhizoctonia solani) | Disease Control Rating at 0.1 mg/mL (Rhizoctonia solani) | Disease Control Rating at 0.5 mg/mL (Rhizoctonia solani) | IC50 (succinate dehydrogenase) [µM] | Disease Control Rating at 500 ppm (Botrytis cinerea [1]) | pest or weed control at 50 ppm (Botrytis cinerea [2]) [%] | pest or weed control at 200 ppm (Botrytis cinerea [2]) [%] | Disease Control Rating at 20 ppm (Botrytis cinerea [1]) | Disease Control Rating at 100 ppm (Botrytis cinerea [1])
1 | Cn1cc(C(=O)Nc2ccccc2O[C@H]2C[C@H]3CC[C@@H]2C3)c(C(F)F)n1 (relative stereo) [Example 82, 1H-pyrazole-4-carboxamide, N-[2-(bicyclo[2.2.1]hept-2-yloxy)-phenyl]-3-(difluoromethyl)-1-methyl-, endo-] | 3 | 3 | 3 | 0.065 | 0 | 0 | 0 |  | 
2 | Cn1cc(C(=O)Nc2ccccc2C=C2CCCCCC2)c(C(F)F)n1 [Example 147, 1H-pyrazole-4-carboxamide, N-[2-(cycloheptylidenemethyl)phenyl]-1-methyl-3-(difluoromethyl)-] |  |  | 2 | 0.02 | 0 | 0 | 0 | 0 | 0
3 | COc1ccc(C2CCCCCCC2)c(NC(=O)c2cn(C)nc2C(F)(F)F)c1 [Example 38, 1H-pyrazole-4-carboxamide, N-(2-cyclooctyl-5-methoxyphenyl)-1-methyl-3-(trifluoromethyl)-] | 0 | 0 | 1 | 0.014 | 2 | 0 | 14 | 0 | 2
4 | CCC1CC=C(c2ccccc2NC(=O)c2cn(C)nc2C(F)(F)F)CC1 (stereo not shown) [Example 126, 1H-pyrazole-4-carboxamide, N-[2-(4-ethyl-1-cyclohexen-1-yl)phenyl]-1-methyl-3-(trifluoromethyl)-] |  |  | 3 | 0.0066 | 1 | 59 | 97 | 0 | 1
5 | CSc1nn(C)cc1C(=O)Nc1ccccc1C1CCCCC1 [Example 39, 1H-pyrazole-4-carboxamide, N-(2-cyclohexylphenyl)-1-methyl-3-(methylthio)-] |  |  | 0 | 0.36 | 1 | 50 | 55 |  | 
6 | Cc1c(C(=O)Nc2ccccc2C2CCCC2)c(C(F)(F)F)nn1C [Example 101, 1H-pyrazole-4-carboxamide, N-(2-cyclopentylphenyl)-1,5-dimethyl-3-(trifluoromethyl)-] | 0 | 1 | 3 | 1.4 | 0 | 10 | 16 |  | 
7 | Cc1nn(C)c(C)c1C(=O)Nc1ccccc1C1CCCCCC1 [Example 66, 1H-pyrazole-4-carboxamide, N-(2-cycloheptylphenyl)-1,3,5-trimethyl-] | 3 | 3 | 3 | 0.048 | 2 | 32 | 35 | 0 | 0
8 | Cn1cc(C(=O)Nc2ccccc2[C@@H]2C[C@H]3CC[C@@H]2C3)c(Br)n1 (relative stereo) [Example 65, 1H-pyrazole-4-carboxamide, N-(2-bicyclo[2.2.1]hept-2-ylphenyl)-3-bromo-1-methyl-, exo-] | 2 | 3 | 3 | 0.011 | 2 | 47 | 85 | 0 | 1
9 | Cn1cc(C(=O)Nc2ccccc2C2=CCCCCCC2)c(C(F)(F)F)n1 [Example 120, 1H-pyrazole-4-carboxamide, N-[2-(1-cycloocten-1-yl)phenyl]-1-methyl-3-(trifluoromethyl)-] |  |  | 3 | 0.0041 | 2 | 60 | 82 | 0 | 0
10 | Cn1cc(C(=O)Nc2ccccc2C2CCCCCC2)c(C(F)(F)Cl)n1 [Example 92, 1H-pyrazole-4-carboxamide, 3-(chlorodifluoromethyl)-N-(2-cycloheptylphenyl)-1-methyl-] | 0 | 1 | 2 | 0.062 | 0 | 36 | 30 |  | 
11 | Cc1cccc(NC(=O)c2cn(C)nc2C(F)F)c1C1CCCCC1 [Example 20, 1H-pyrazole-4-carboxamide, N-(2-cyclohexyl-3-methylphenyl)-3-(difluoromethyl)-1-methyl-] | 2 | 3 | 3 | 0.014 | 3 | 78 | 81 | 1 | 2
12 | C[C@H]1CCC[C@H](c2ccccc2NC(=O)c2cn(C)nc2C(F)(F)F)C1 (relative stereo) [Example 70, 1H-pyrazole-4-carboxamide, 1-methyl-N-[2-(3-methylcyclohexyl)-phenyl]-3-(trifluoromethyl)-, trans-] |  |  | 0 | 0.012 | 3 | 97 | 96 | 1 | 2
13 | CC(c1ccccc1NC(=O)c1cn(C)nc1C(F)(F)F)C1CCCC1 (stereo not shown) [Example 53, 1H-pyrazole-4-carboxamide, N-[2-(1-cyclopentylethyl)phenyl]-1-methyl-3-(trifluoromethyl)-] | 2 | 3 | 3 | 0.021 | 0 | 40 | 70 |  | 
14 | Cn1cc(C(=O)Nc2cc(Br)cc(Br)c2C2CCCCC2)c(C(F)(F)F)n1 [Example 136, 1H-pyrazole-4-carboxamide, N-(3,5-dibromo-2-cyclohexylphenyl)-1-methyl-3-(trifluoromethyl)-] |  |  | 0 |  | 1 | 7 | 0 | 0 | 0
